For data set [1], the target named is T1, Bile acid receptor (Homo sapiens, UniProt Q96RI1).
T1 sequence (Q96RI1 whole entry): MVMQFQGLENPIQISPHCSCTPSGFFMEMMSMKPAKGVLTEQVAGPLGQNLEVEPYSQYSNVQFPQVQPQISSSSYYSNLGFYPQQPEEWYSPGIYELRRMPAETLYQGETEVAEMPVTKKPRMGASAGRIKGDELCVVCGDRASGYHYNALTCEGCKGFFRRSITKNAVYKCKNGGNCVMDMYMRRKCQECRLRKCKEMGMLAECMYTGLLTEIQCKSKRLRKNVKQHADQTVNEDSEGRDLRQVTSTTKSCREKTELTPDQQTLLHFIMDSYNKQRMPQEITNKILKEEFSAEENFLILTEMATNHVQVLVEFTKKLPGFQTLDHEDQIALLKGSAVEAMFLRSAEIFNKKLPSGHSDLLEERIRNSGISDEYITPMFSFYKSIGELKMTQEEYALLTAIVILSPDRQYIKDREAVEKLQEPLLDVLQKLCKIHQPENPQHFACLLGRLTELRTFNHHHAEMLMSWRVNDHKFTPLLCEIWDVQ
The data set is described as follows: Agonist activity at GST-tagged human FXR-LBD in presence of luorescein-SRC2-2 coactivator peptide by TR-FRET assay.

Data set [2] has as its target T1, Bile acid receptor. The data set is described as follows: Agonist activity at human GAL4-FXR-LBD expressed in HEK293T cells assessed as transcriptional activity measured after 16 to 20 hrs by luciferase reporter gene assay. It is filed as cell-based.
Data set [3] is described as follows: Metabolic stability in dog liver microsomes assessed as half life at 1 uM measured upto 120 mins by UPLC/MS/MS analysis. It is filed as ADME, Canis lupus familiaris, Microsome.
Data set [4] can be described thus: Solubility of the compound in PBS buffer at pH 7.4. It is filed as physicochemical.
The nature of data set [5]: Metabolic stability in human liver microsomes assessed as half life at 1 uM measured upto 120 mins by UPLC/MS/MS analysis. Type of data set: ADME, Microsome.
A short description of data set [6]: Metabolic stability in rat liver microsomes assessed as half life at 1 uM measured upto 120 mins by UPLC/MS/MS analysis. It is filed as ADME, Microsome.
Data set [7] is described as follows: Metabolic stability in cynomolgus monkey liver microsomes assessed as half life at 1 uM measured upto 120 mins by UPLC/MS/MS analysis. It is filed as ADME, Macaca fascicularis, Microsome.
Data set [8] deals with Mus musculus. Description: Anti-nonalcoholic steatohepatitis activity against ccl4-induced C57BL/6J mouse model assessed as decrease in AST level in liver at 30 mg/kg, po qd treated for 28 days. It is filed as functional, organism-based. The settings on record: time 28.0 day.
Data set [9] concerns Mus musculus. The data set is described as follows: Anti-nonalcoholic steatohepatitis activity against ccl4-induced C57BL/6J mouse model assessed as improvement in fibrosis at 30 mg/kg, po qd treated for 28 days. It is filed as functional, organism-based. The settings on record: time 28.0 day.
Data set [10] can be described thus: Toxicity in C57BL/6J mouse assessed as change in body weight at 30 mg/kg, po qd. It is filed as organism-based. The settings on record: in vivo.
In data set [11] the test system is Mus musculus. Description: Anti-nonalcoholic steatohepatitis activity against ccl4-induced C57BL/6J mouse model assessed as improvement in liver inflammation at 30 mg/kg, po qd treated for 28 days. Type of data set: functional, organism-based. The settings on record: time 28.0 day.
Data set [12] deals with Mus musculus. Description: Anti-nonalcoholic steatohepatitis activity against ccl4-induced C57BL/6J mouse model assessed as clearance of liver steatosis at 30 mg/kg, po qd treated for 28 days. It is filed as functional, organism-based. The settings on record: time 28.0 day.
The subject of data set [13] is Mus musculus. Description: Anti-nonalcoholic steatohepatitis activity against ccl4-induced C57BL/6J mouse model assessed as decrease in ALT level in liver at 30 mg/kg, po qd treated for 28 days. The settings on record: time 28.0 day. It is filed as functional, organism-based.
Data set [14] relates to Mus musculus. Description: Anti-nonalcoholic steatohepatitis activity against ccl4-induced C57BL/6J mouse model assessed as reduction total cholesterol in serum at 30 mg/kg, po qd treated for 28 days. Type of data set: functional, organism-based. The settings on record: time 28.0 day.

≈ marks a conversion by molar mass, not a printed value. Calls of active or inactive are those of the source. The calls are words filed in the database; no cut-off is given here.

With `COc1cc(C(=O)O)cc2sc(C3CCN(Cc4c(-c5c(Cl)cccc5Cl)noc4C(C)C)C3)nc12` (configuration not stated), the figures for the EC50 at Bile acid receptor [1] and at Bile acid receptor [2] were 266 nM and over 5000 nM, respectively.
As for `C[C@@H]1CN(Cc2c(-c3c(Cl)cccc3Cl)noc2C2CC2)CCN1c1nc2c(F)cc(C(=O)O)cc2s1`, the half-life at 1 µM in data set [3] amounted to 6.67 h; in data set [5], 1.47 h; in [6], 1.54 h; in [7], 1.94 h. Also, the EC50 at Bile acid receptor [1] came out at 6 nM; at Bile acid receptor [2], 39 nM. This compound registered a solubility in [4] of 129 µM (≈ 72.5 µg/mL).
With `COc1cc(C(=O)O)cc2sc(N3CCN(Cc4c(-c5c(Cl)cccc5Cl)noc4C4CC4)C[C@@H]3C)nc12`, the half-life at 1 µM in data set [3] stood at 0.832 h; in [5], 5.11 h; in data set [6] it was 1.83 h; in data set [7] it was 1.14 h. Besides, the results for the EC50 on Bile acid receptor [1] and on Bile acid receptor [2] were 16 nM and 124 nM, respectively.
As for `COc1cc(C(=O)O)cc2sc(C3CCN(Cc4c(-c5c(Cl)cccc5Cl)noc4C(C)C)CC3)nc12`, the EC50 is 200 nM at Bile acid receptor [1] and over 5000 nM on Bile acid receptor [2].
For `COc1cc(C(=O)O)cc2sc(N3CCN(Cc4c(-c5c(Cl)cccc5Cl)noc4C(C)C)CC3(C)C)nc12`, the figures for the EC50 at Bile acid receptor [1] and at Bile acid receptor [2] were 37 nM and 127 nM, respectively.
With `CC[C@H]1[C@@H](O)C2[C@@H]3CC[C@H]([C@H](C)CCC(=O)O)[C@@]3(C)CC[C@@H]2[C@@]2(C)CC[C@@H](O)C[C@@H]12` (some centres not stated), the result in the data set on Mus musculus [8], in the data set on Mus musculus [11] and with Mus musculus [13] was inactive. Besides, the outcome in the data set with Mus musculus [9], in the data set on Mus musculus [12] and in the data set with Mus musculus [14] was Active. Further, in data set [10], the Activity result was “Non-Toxic”.
`COc1cc(C(=O)O)cc2sc(N3CCN(Cc4c(-c5c(Cl)cccc5Cl)noc4C(C)C)CC34CC4)nc12`: at Bile acid receptor [2], the EC50 was found to be 1240 nM.
Regarding `CC(C)c1onc(-c2c(Cl)cccc2Cl)c1CN1CCN(c2cc3cc(C(=O)O)ccc3n2C)CC1`, the EC50 on Bile acid receptor [1] is 67 nM; on Bile acid receptor [2] it was over 5000 nM.
As for `CC(C)c1onc(-c2c(Cl)cccc2Cl)c1CN1CCN(c2nc3cccc(C(=O)O)c3s2)CC1`, the EC50 at Bile acid receptor [2] was over 5000 nM.
Take `COc1cc(C(=O)O)cc2sc(N3CCN(Cc4c(-c5c(Cl)cccc5Cl)noc4C(C)C)CC3)nc12`: the figures for the EC50 at Bile acid receptor [1] and at Bile acid receptor [2] were 31 nM and 147 nM, respectively.
Regarding `CC(C)c1onc(-c2c(Cl)cccc2Cl)c1CN1CCN(c2nc3ccc(C(=O)O)cc3s2)CC1`, at Bile acid receptor [2], the EC50 worked out at 256 nM.
In the case of `COc1cc(C(=O)O)cc2sc(N3CCN(Cc4c(-c5c(Cl)cccc5Cl)noc4C4CC4)CC3C)nc12` (configuration not stated), the EC50 came out at 8 nM on Bile acid receptor [1] and 41 nM on Bile acid receptor [2].
For `CC(C)c1onc(-c2c(Cl)cccc2Cl)c1CN1CCN(c2cc3cc(C(=O)O)ccc3s2)CC1`, on Bile acid receptor [2], the EC50 was 1190 nM.
Take `COc1cc(C(=O)O)cc2sc(N3CCC(Cc4c(-c5c(Cl)cccc5Cl)noc4C(C)C)CC3)nc12`: the figures for the EC50 on Bile acid receptor [1] and at Bile acid receptor [2] were 28 nM and 194 nM, respectively.
The like results for `CCC1CN(Cc2c(-c3c(Cl)cccc3Cl)noc2C(C)C)CCN1c1nc2c(OC)cc(C(=O)O)cc2s1` (configuration not stated) were, in that order, 21 nM and 85 nM.
For `COc1cc(C(=O)O)cc2sc(N3CCC(Cc4c(-c5c(Cl)cccc5Cl)noc4C(C)C)C3)nc12` (configuration not stated), the EC50 on Bile acid receptor [1] and at Bile acid receptor [2] was over 5000 nM in each case.
